Data reported in ChEMBL document CHEMBL3091370, “3,5-bis(benzylidene)-4-piperidones and related N-acyl analogs: a novel cluster of antimalarials targeting the liver stage of Plasmodium falciparum” (Bioorg Med Chem, 2013).
Values after ≈ are worked out from the molar mass of the structure shown.

Columns and labels:
Plasmodium berghei [1] = assay: Ratio of mefloquine IC50 to compound IC50 for liver stage Plasmodium berghei ANKA sporozoites infected in human HepG2 cells; format: functional
Plasmodium berghei [2] = assay: Ratio of chloroquine IC50 to compound IC50 for liver stage Plasmodium berghei ANKA sporozoites infected in human HepG2 cells; format: functional
[3] = Efflux ratio of apparent permeability from basolateral to apical side to apical to basolateral side in MDCK cells; format: ADME, cell-based, Canis lupus familiaris; settings: dog
[4] = Apparent permeability from basolateral to apical side in MDCK cells at 10 uM after 1 hr by LC/MS analysis; format: ADME, cell-based, Canis lupus familiaris; settings: dog
[5] = Half life in mouse plasma at 1 mM by LC/MS analysis; format: ADME, cell-free
[6] = Apparent permeability from apical to basolateral side in MDCK cells at 10 uM after 1 hr by LC/MS analysis; format: ADME, cell-based, Canis lupus familiaris; settings: dog
[7] = Half life in human plasma at 1 mM by LC/MS analysis; format: ADME, cell-free
HepG2 = assay: Cytotoxicity against human HepG2 cells after 48 hrs by MTT assay; format: cell-based; settings: HepG2, 48 h
Plasmodium berghei [8] = assay: Antimalarial activity against liver stage Plasmodium berghei ANKA sporozoites infected in human HepG2 cells after 48 hrs by luciferase reporter gene assay; format: functional, organism-based; settings: HepG2, 48 h
Plasmodium falciparum [9] = assay: Ratio of IC50 for drug-resistant Plasmodium falciparum C235 to IC50 for drug-sensitive Plasmodium falciparum D6; format: functional
Plasmodium falciparum [10] = assay: Antimalarial activity against drug-resistant Plasmodium falciparum C235 after 72 hrs by SYBR green I staining-based fluorescence assay; format: functional, organism-based; settings: C235, 72 h
Plasmodium falciparum [11] = assay: Antimalarial activity against drug-sensitive Plasmodium falciparum D6 after 72 hrs by SYBR green I staining-based fluorescence assay; format: functional, organism-based; settings: D6, 72 h

Row | SMILES | Ratio IC50 (Plasmodium berghei [1]) | Ratio IC50 (Plasmodium berghei [2]) | efflux ratio [3] | Papp B→A at 1 h, 10 µM [4] [×10⁻⁶ cm/s] | half-life [5] [min] | Papp A→B at 1 h, 10 µM [6] [×10⁻⁶ cm/s] | half-life [7] [min] | IC50 (HepG2) [µg/mL] | IC50 (Plasmodium berghei [8]) [µg/mL] | Ratio IC50 (Plasmodium falciparum [9]) | IC50 (Plasmodium falciparum [10]) [µg/mL] | IC50 (Plasmodium falciparum [11]) [µg/mL]
1 | O=C1/C(=C/c2ccccc2)CNC/C1=C\c1ccccc1 | >21 | >21 | 0.02 | 0.1 | 19.5 | 5.74 | 11.8 | > 2 | 0.0935 (≈ 0.34 µM) | 1.17 | 0.162 (≈ 0.588 µM) | 0.139 (≈ 0.505 µM)
2 | Cc1ccc(/C=C2\CNC/C(=C\c3ccc(C)cc3)C2=O)cc1 | – | – | – | – | 14.6 | – | 17.2 | > 2 | 0.159 (≈ 0.524 µM) | 1.15 | 0.285 (≈ 0.939 µM) | 0.249 (≈ 0.821 µM)
3 | O=C1/C(=C/c2ccc(Cl)cc2)CNC/C1=C\c1ccc(Cl)cc1 | – | – | – | – | > 60 | – | > 60 | > 2 | 0.597 (≈ 1.73 µM) | 1.24 | 0.128 (≈ 0.372 µM) | 0.103 (≈ 0.299 µM)
4 | O=C1/C(=C/c2ccc([N+](=O)[O-])cc2)CNC/C1=C\c1ccc([N+](=O)[O-])cc1 | – | – | 0.01 | – | 22.5 | 0.28 | > 60 | > 2 | 0.356 (≈ 0.974 µM) | 1.1 | 0.0412 (≈ 0.113 µM) | 0.0375 (≈ 0.103 µM)
5 | Cc1ccc(/C=C2\CN(C(=O)c3ccc(OCCN4CCOCC4)cc3)C/C(=C\c3ccc(C)cc3)C2=O)cc1.Cl | – | – | – | – | – | – | – | – | – | >2.36 | > 2 | 0.846
6 | Cl.O=C1/C(=C/c2ccc(Cl)cc2)CN(C(=O)c2ccc(OCCN3CCCCC3)cc2)C/C1=C\c1ccc(Cl)cc1 | – | – | – | – | – | – | – | – | – | >1.06 | > 2 | > 2
7 | CN(C)CCOc1ccc(C(=O)N2C/C(=C\c3ccc(Cl)cc3)C(=O)/C(=C/c3ccc(Cl)cc3)C2)cc1.Cl | – | – | – | – | – | – | – | – | – | 1.14 | 0.565 | 0.497
8 | CCN(CC)CCOc1ccc(C(=O)N2C/C(=C\c3ccccc3)C(=O)/C(=C/c3ccccc3)C2)cc1.Cl | – | – | – | – | – | – | – | > 2 | 0.383 | 0.76 | 0.311 | 0.412
9 | Cl.O=C1/C(=C/c2ccc([N+](=O)[O-])cc2)CN(C(=O)c2ccc(OCCN3CCOCC3)cc2)C/C1=C\c1ccc([N+](=O)[O-])cc1 | – | – | – | – | – | – | – | > 2 | 0.357 | 1.22 | 0.53 | 0.433
10 | Cl.O=C1/C(=C/c2ccccc2)CN(C(=O)c2ccc(OCCN3CCOCC3)cc2)C/C1=C\c1ccccc1 | – | – | – | – | – | – | – | – | – | >1.41 | > 2 | 1.42
11 | CCN(CC)CCOc1ccc(C(=O)N2C/C(=C\c3ccc(C)cc3)C(=O)/C(=C/c3ccc(C)cc3)C2)cc1.Cl | – | – | – | – | – | – | – | > 2 | 0.483 | 1.03 | 0.555 | 0.536
12 | Cc1ccc(/C=C2\CN(C(=O)c3ccc(OCCN4CCCCC4)cc3)C/C(=C\c3ccc(C)cc3)C2=O)cc1.Cl | – | – | – | – | – | – | – | – | – | 1.05 | 0.713 | 0.682
13 | CCN(CC)CCOc1ccc(C(=O)N2C/C(=C\c3ccc([N+](=O)[O-])cc3)C(=O)/C(=C/c3ccc([N+](=O)[O-])cc3)C2)cc1.Cl | – | – | – | – | – | – | – | > 2 | 0.186 | 0.72 | 0.146 | 0.202
14 | CN(C)CCOc1ccc(C(=O)N2C/C(=C\c3ccc([N+](=O)[O-])cc3)C(=O)/C(=C/c3ccc([N+](=O)[O-])cc3)C2)cc1.Cl | – | – | – | – | – | – | – | > 2 | 0.31 | 0.88 | 0.372 | 0.424
15 | Cl.O=C1/C(=C/c2ccc([N+](=O)[O-])cc2)CN(C(=O)c2ccc(OCCN3CCCCC3)cc2)C/C1=C\c1ccc([N+](=O)[O-])cc1 | – | – | – | – | – | – | – | > 2 | 0.165 | 1.15 | 0.288 | 0.25
16 | Cl.O=C1/C(=C/c2ccccc2)CN(C(=O)c2ccc(OCCN3CCCCC3)cc2)C/C1=C\c1ccccc1 | – | – | – | – | – | – | – | – | – | 0.93 | 0.74 | 0.794
17 | CN(C)CCOc1ccc(C(=O)N2C/C(=C\c3ccccc3)C(=O)/C(=C/c3ccccc3)C2)cc1.Cl | – | – | – | – | – | – | – | – | – | >1.14 | > 2 | 1.75
18 | CCN(CC)CCOc1ccc(C(=O)N2C/C(=C\c3ccc(Cl)cc3)C(=O)/C(=C/c3ccc(Cl)cc3)C2)cc1.Cl | – | – | – | – | – | – | – | – | – | – | > 2 | > 2
19 | Cc1ccc(/C=C2\CN(C(=O)c3ccc(OCCN(C)C)cc3)C/C(=C\c3ccc(C)cc3)C2=O)cc1.Cl | – | – | – | – | – | – | – | > 2 | > 2 | – | > 2 | > 2
20 | O[C@@H](c1cc(C(F)(F)F)nc2c(C(F)(F)F)cccc12)[C@H]1CCCCN1 (relative stereo) [(S,R)-MEFLOQUINE] | – | – | 6.17 | 3.7 | > 60 | 0.6 | > 60 | > 2 | > 2 | 2 | 0.0167 (≈ 0.0441 µM) | 0.0066 (≈ 0.0174 µM)
21 | CCN(CC)CCCC(C)Nc1ccnc2cc(Cl)ccc12.O=P(O)(O)O.O=P(O)(O)O (stereo not drawn) [CHLOROQUINE PHOSPHATE] | – | – | – | – | – | – | – | > 2 | > 2 | – | – | –
22 | CCN(CC)CCCC(C)Nc1ccnc2cc(Cl)ccc12 (stereo not drawn) [CHLOROQUINE] | – | – | – | 14 | > 60 | 13 | > 60 | – | – | – | – | –
